The values below come from patent US20170319570A1, “Treatment of Multiple Sclerosis With Combination of Laquinimod and Dimethyl Fumarate” (Teva Pharmaceutical Industries, Ltd., priority 2012, published 2017).

One data set relates to MOG-induced EAE. The data set can be described thus: MOG-induced EAE, laquinimod alone or with add on DMF (Example 1A). Type of data set: in vivo, mouse. To be noted: oral QD.
The subject of the next data set is MOG peptide induced EAE. The settings on record: cited from earlier work.
The subject of a further data set is RRMS patients. The settings on record: Phase 2B trial; cited from earlier work.
The subject of another data set is MOG induced EAE. Kind of data set: MOG-induced EAE, laquinimod in combination with DMF (Example 1B). To be noted: Day 1 to 30, dead or moribund/total. In kind it is in vivo, mouse.
For data set [1] the following is noted: in vivo; cited from earlier work.

Turning to `COC(=O)/C=C/C(=O)OC` [DMF, Dimethyl (E)-but-2-Enedioate], the “effectiveness on disease severity” value with MOG-induced EAE was “moderately effective”. Also, the “plasma levels of IL-10” value in the data set on MOG peptide induced EAE (MOG peptide induced EAE) is reported as “increased”. Further, the glial inflammation entry in the data set on MOG peptide induced EAE (during MOG peptide induced EAE) is reported as “reduced”. Moreover, in the data set on RRMS patients, the annualized relapse rate entry is reported as “non-significant decrease”; the “new gadolinium enhancing lesions, T1 and T2 lesions” value is given as “significant decreases”.
Turning to `CCN(C(=O)c1c(O)c2c(Cl)cccc2n(C)c1=O)c1ccccc1` [Laquinimod], the Mortality in the data set on MOG induced EAE (Group 2: laquinimod 5 mg/kg/day gavage qd), in the data set with MOG induced EAE (Group 3: laquinimod 10 mg/kg/day gavage qd) and with MOG induced EAE (Group 4: laquinimod 25 mg/kg/day gavage qd) was 0/15 throughout. The “effectiveness on disease severity” value in the data set with MOG-induced EAE (0.06 mg/kg laquinimod alone) is on record as “moderately effective”. The oral bioavailability result in data set [1] is listed as “high”.
